Measurements as given in US10487045B2, “Adamantane derivative and use thereof” (TOHOKU UNIVERSITY, priority 2016, dated 2019).

Key:
Kir6.2 defective mice = experiment: Immunoblotting of hippocampus for CaMKII activation in Kir6.2 defective mice; assay type: in vivo; details: chronic treatment
Protocol: Activation of CaMKII was investigated in the same manner as in FIGS. 4 to 7. In addition, GluA1 (Ser-831), which is known as a molecule activated by activation of CaMKII, was investigated. Hippocampal slices were suspended in an SDS sample buffer to prepare a suspension, which was subjected to immunoblotting. In this way, the intracellular mechanism of cognitive dysfunction in Kir6.2 defective mice was analyzed. The results are shown in FIG. 9 (FIG. 9a: band images by immunoblotting, FIG. 9b: quantification results of signal intensities of bands). In the hippocampus of Kir6.2 defective mice, activation of CaMKII was accelerated. Even in the case of chronic treatment with TP-014, no influence was observed.

Kir6.1 channel = target: T1, Kir6.1 channel (Mus musculus, UniProt P97794); experiment: Patch-clamp measurement of outward potassium current in Kir6.1 channel-overexpressing cells; assay type: cell-based; details: 10 nM TP-014, Test Example 15 (Kir6.1 channel)
T1 construct: expressed in transfected cells; host or cells: Neuro2A (N2A) cells, transient transfection with pcDNA3.1-Kir6.1 (gift of Prof. Toru Ishizuka, Tohoku University)
T1 sequence (P97794 1-424): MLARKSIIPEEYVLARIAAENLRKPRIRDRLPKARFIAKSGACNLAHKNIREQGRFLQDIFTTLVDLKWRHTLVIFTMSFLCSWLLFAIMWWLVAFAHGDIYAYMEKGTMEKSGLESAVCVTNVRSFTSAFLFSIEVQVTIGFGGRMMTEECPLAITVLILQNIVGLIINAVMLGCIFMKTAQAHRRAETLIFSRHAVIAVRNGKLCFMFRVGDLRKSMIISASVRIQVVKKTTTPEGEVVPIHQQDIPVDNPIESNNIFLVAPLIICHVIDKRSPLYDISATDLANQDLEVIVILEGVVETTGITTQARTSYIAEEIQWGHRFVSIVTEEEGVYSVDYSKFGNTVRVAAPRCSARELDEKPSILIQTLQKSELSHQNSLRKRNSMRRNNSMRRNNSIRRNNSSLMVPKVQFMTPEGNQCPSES
Protocol: A plasmid vector having cDNA of Kir6.1 channel inserted therein: pcDNA3.1-Kir6.1, was obtained from professor Toru Ishizuka of Graduate School of Life Sciences, Tohoku University. N2A cells overexpressing Kir6.1 channel were obtained in the same manner as in “preparation of N2A cells overexpressing Kir6.2 channel” of Test Example 1 except that the above plasmid was used.
Using Kir6.1 channel-overexpressing cells obtained, potassium current flowing outside from cells was measured by the ordinary patch-clamp method. ATP-sensitive potassium channel (Kir6.1 channel) was localized in the cell membrane of the nerve cells. If the channel is inhibited and clogged, the threshold of the nerve cell membrane rises to produce the analogous state as where an action potential is temporarily generated, with the result that potassium current flows out from cells outside and, in place, calcium current flows into the cells from outside. […] This was confirmed by applying immunoblotting (the same conditions as in Test Example 1 were employed except that anti-Kir6.1 channel antibody, n=5) with an anti-Kir6.1 channel antibody (prepared based on an ordinary method) to Kir6.1 channel-overexpressing cells (prepared by the aforementioned method).

APP23 mice [1] = experiment: Fear conditioning test in Alzheimer's disease model mice; assay type: in vivo; details: APP23 mice treated for two months
Excerpt: The fear conditioning test method is an analysis taking an advantage of mouse's preposition in favor of a dark place rather than a bright place. Day 1, a mouse is placed in a bright place. Since a mouse is fond of a dark place, the mouse enters a dark place (dark box). When an electrical stimulation is given to the mouse at this time, the mouse is surprised and returns to the bright place and never enters the dark place. Day 2, the mouse is placed in the bright place (the same place as on Day 1), and then, whether the mouse enters a dark place or not is observed for 5 minutes. If the mouse enters the dark place right away, it is determined that fear memory of the mouse declined. “Latency” is a time period (seconds) until the mouse placed in a bright place enters the dark plate (darkroom) on Day 2.

APP23 mice [2] = experiment: Long-term potentiation (LTP) in hippocampal slices, electrophysiological technique; assay type: in vivo; details: hippocampal slices of APP23 mice chronically treated
Protocol: FIG. 4e to FIG. 4g show the results of long-term potentiation phenomenon (LTP)(serving as an index of memory formation) analyzed by an electrophysiological technique. The hippocampus in the brain plays an important role in memorization. The hippocampus was cut into slice sections (400 micrometers in thickness). The slice sections were placed in an artificial cerebrospinal fluid (126 mM NaCl, 5 mM KCL, 26 mM NaHCO3, 1.3 mM MgSO4-7H2O, 1.26 mM KH2PO4, 2.4 mM CaCl2-2H2O, 10 mM glucose) saturated with a 95% O2/5% CO2 gas at 34° C. for two hours and recovered. The hippocampal slice sections were transferred to a measuring chamber and the artificial cerebrospinal fluid containing TP-014 was perfused. The activity of the nerve cells when electrical stimulation was applied was recorded and the postsynaptic assembly potential (fEPSP) was measured. Based on them, the degree of LTP improvement was evaluated. Thereafter, an electrical stimulation (100 Hz) was applied to the hippocampus to cause a […] (it is considered that memory is formed by a […] in the hippocampus). It was confirmed that an increase rate of the neuronal excitation decreases in APP23 mice; whereas the increase rate is improved in the mice chronically treated with TP-014.

ob/ob = experiment: Hypoglycemic effect, blood glucose level by assay kit; assay type: in vivo; details: 1 mg/kg chronic treatment for 4 weeks; effect on and after 3 weeks; vs ob/ob (saline)
Protocol: A hypoglycemic effect by TP-014 was checked by measuring the blood glucose level by an assay kit (manufactured by Technicon International co). The measurement was carried out for 4 weeks. […] As a control, tolbutamide was used. Kir6.2 channel binds to SUR1 ([…]) on the cell membrane to form a channel. Action mechanism is considered due to Kir6.2 channel inhibitory action. Tolbutamide binds to SUR1 to inhibit Kir6.2 channel.

[3] = system: Kir6.2 channel deficient mice; experiment: Cognitive function tests and LTP in Kir6.2 channel deficient mice; assay type: in vivo; details: chronic treatment (two months)
Excerpt: To confirm that TP-014 action is Kir6.2 channel inhibitory action, the action site of TP-014 was identified by the same behavioral experiment as in FIG. 4 (FIG. 8a and FIG. 8b: Y-maze test, FIG. 8c: new object recognition test method, FIG. 8d: fear conditioning test method, FIG. 8e to FIG. 8g: LTP improvement evaluation, n=5 per group) using Kir6.2 channel deficient mice. It was confirmed that cognitive dysfunction is induced in Kir6.2 defective mice. […] It was also shown that memory disturbance and LTP attenuation of Kir6.2 defective mice are not improved by TP-014 chronic treatment (two months). […] The analytical methods are the same as in Test Examples 4 to 7. Note that, Kir6.2 defective mice were obtained from Professor Susumu Seino, School of Medicine of Kobe University (Miki T et al., Proc. Natl. Acad. Sci. U.S.A. 1998, 95, 10402-10406).

With `O=C(N[C@@H](c1ccccc1)[C@H]1[C@H]2C[C@@H]3C[C@](Cl)(C2)C[C@@]1(OC(=O)C(F)(F)F)C3)C(F)(F)F` [TP-014, (1S,2R,3S,5S,7S)-5-chloro-2-((R)-phenyl(2,2,2-trifluoroacetamido)methyl)adamantan-1-yl 2,2,2-trifluoroacetate] the “activation of CaMKII in hippocampus of Kir6.2 defective mice” value (Kir6.2 defective mice) was “no influence”, the outward potassium current (Kir6.1 channel) was “suppressed” and the “fear memory (latency, fear conditioning test)” value (APP23 mice [1]) was “improvement effect”. The “LTP, increase rate of neuronal excitation (fEPSP) after 100 Hz stimulation” value (APP23 mice [2]) was “improved”, the blood glucose level (ob/ob) was “significantly decreased” and the “memory disturbance and LTP attenuation of Kir6.2 defective mice” value [3] was “not improved”.
